IC50 data for 38 compounds are collected here from US20060063782A1, “3-Hetero arylmethoxy ! pyridines and their analogues as p38 map kinase inhibitors” (priority 2002, published 2006).

Bounds are passed on as bounds.

One test deals with p38 MAP kinase (Homo sapiens, UniProt Q16539). The experiment in a line: p38 MAP Kinase Assay (33P incorporation into myelin basic protein, filter plate). The test is classed as biochemical. The note with it: Table 1; MKK6-activated p38, MBP substrate, 50 minutes. As for the experimental part: The activated p38 is then diluted 1:6 with assay buffer, and 20 μl mixed with 25 μl of MBP mix (300 μl 10×strength assay buffer, 300 μl of 10 mM DTT & 10 mM sodium orthovanadate, 1.7 ml H2O, 50 μCi γ^33P-ATP, 200 μl of myelin basic protein (MBP) (5 mg/ml)) and added to 96 well plates along with 5 μl of various dilutions of the test compound in DMSO (up to 10%). The reaction is allowed to proceed for 50 minutes before being stopped with an excess of ortho-phosphoric acid (30 μl at 2%).
Chain of p38 MAP kinase (Q16539 whole entry): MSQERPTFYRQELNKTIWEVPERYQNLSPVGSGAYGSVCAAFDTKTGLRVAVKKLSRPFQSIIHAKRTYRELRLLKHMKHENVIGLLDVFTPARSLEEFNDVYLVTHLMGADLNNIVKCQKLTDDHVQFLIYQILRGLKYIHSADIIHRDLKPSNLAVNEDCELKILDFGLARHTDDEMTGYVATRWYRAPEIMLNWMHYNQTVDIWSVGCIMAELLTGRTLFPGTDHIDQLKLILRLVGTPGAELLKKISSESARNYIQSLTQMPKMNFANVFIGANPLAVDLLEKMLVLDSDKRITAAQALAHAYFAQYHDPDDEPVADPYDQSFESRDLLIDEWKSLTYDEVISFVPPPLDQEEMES
γ^33P-ATP which remains unincorporated into the myelin basic protein is separated from phosphorylated MBP on a Millipore MAPH filter plate. The wells of the MAPH plate are wetted with 0.5% orthophosphoric acid, and then the results of the reaction are filtered with a Millipore vacuum filtration unit through the wells. Following filtration, the residue is washed twice with 200 μl of 0.5% orthophosphoric acid. Once the filters have dried, 25 μl of Microscint 20 scintillant is added, and then counted on a Packard Topcount for 30 seconds.
Take `CC(C)c1nnc(NC(=O)Nc2ccc(F)c(COc3cccnc3)c2)s1` [Compound 81, 1-[4-Fluoro-3-(pyridin-3-yloxymethyl)-phenyl]-3-(5-isopropyl-[1,3,4]thiadiazol-2-yl)-urea]: the IC50 (in general, the concentration needed to halve the response being measured) is less than 20 µM.

Staying with this test, now noted: Table 2; MKK6-activated p38, MBP substrate, 50 minutes.
As to `Nc1nccnc1OCc1cccc2ccccc12` [Compound 82], the IC50 was less than 1000 µM. As for `Nc1ncc(OCc2cccc3ccccc23)nc1Br` [Compound 83], the concentration for half-maximal inhibition (IC50) is less than 1000 µM. In turn, `Nc1ncc(OCc2ccccc2)nc1Br` [Compound 84] had an IC50 of less than 1000 µM. Still for that read-out and setting: under `Nc1cccc(COc2cncc(Cl)n2)c1` [Compound 85] stands less than 1000 µM.

In turn, `Nc1cnc(OCc2ccccc2)cn1` [Compound 86] gave an IC50 of less than 1000 µM. On the same count and under the same terms, under `Clc1cccc(Cl)c1COc1cnccn1` [Compound 87] stands less than 200 µM; under `Clc1cnc(OCc2c(Cl)cccc2Cl)cn1` [Compound 88], less than 1000 µM. The same measure, in the same setting: with `CC(C)(C)OC(=O)Nc1ccc(Cl)c(COc2cnccn2)c1` [Compound 89] the figure was less than 1000 µM. The same measure, in the same setting: with `Nc1nccnc1OCc1c(Cl)cccc1Cl` [Compound 90] the figure was less than 1000 µM; with `Nc1ccc(Cl)c(COc2cnccn2)c1` [Compound 91], less than 1000 µM; with `O=C(Nc1ccc(Cl)c(COc2cnccn2)c1)c1ccccc1` [Compound 92, N-[4-Chloro-3-(pyrazin-2-yloxymethyl)-phenyl]-benzamide], less than 20 µM. `O=C(Nc1ccc(Cl)c(COc2cnccn2)c1)c1ccnc(N2CCOCC2)c1` [Compound 93, N-[4-Chloro-3-(pyrazin-2-yloxymethyl)-phenyl]-2-morpholin-4-yl-isonicotinamide] returned an IC50 of less than 2 µM. `CC(C)(C)c1cc(NC(=O)Nc2ccc(Cl)c(COc3cnccn3)c2)[nH]n1` [Compound 95] showed an IC50 of less than 20 µM. The same measure, in the same setting: with `O=C(Nc1ccc(F)c(COc2cnccn2)c1)Nc1nnc(CC2CC2)s1` [Compound 96, 1-(5-Cyclopropylmethyl-[1,3,4]thiadiazol-2-yl)-3-[4-fluoro-3-(pyrazin-2-yloxymethyl)-phenyl]-urea] the figure was less than 2 µM. Still for that read-out and setting: with `CC(C)c1nnc(NC(=O)Nc2ccc(F)c(COc3cnccn3)c2)s1` [Compound 97, 1-[4-Fluoro-3-(pyrazin-2-yloxymethyl)-phenyl]-3-(5-isopropyl-[1,3,4]thiadiazol-2-yl)-urea] the figure was less than 20 µM; with `O=C(Nc1ccc(F)c(COc2cnccn2)c1)c1cccc(S(=O)(=O)N2CCOCC2)c1` [Compound 98, N-[4-Fluoro-3-(pyrazin-2-yloxymethyl)-phenyl]-3-(morpholine-4-sulfonyl)-benzamide], less than 2 µM; with `O=C(Nc1ccc(F)c(COc2cnccn2)c1)Oc1cccc(C(F)(F)F)c1` [Compound 99, [4-Fluoro-3-(pyrazin-2-yloxymethyl)-phenyl]-carbamic acid 3-trifluoromethyl-phenyl ester], less than 20 µM.

Compound `CC(C)(C)c1csc(NC(=O)Nc2ccc(F)c(COc3cnccn3)c2)n1` [Compound 100, 1-(4-tert-Butyl-thiazol-2-yl)-3-[4-fluoro-3-(pyrazin-2-yloxymethyl)-phenyl]-urea] yielded a concentration for half-maximal inhibition (IC50) of less than 20 µM. The same measure, in the same setting: under `CC(C)(C)c1ccc(C(=O)Nc2ccc(F)c(COc3cnccn3)c2)cc1` [Compound 101, 4-tert-Butyl-N-[4-fluoro-3-(pyrazin-2-yloxymethyl)-phenyl]-benzamide] stands less than 20 µM.

In turn, `O=C(Nc1ccc(F)c(COc2cnccn2)c1)c1cccc(Oc2ccccc2)c1` [Compound 102, N-[4-Fluoro-3-(pyrazin-2-yloxymethyl)-phenyl]-3-phenoxy-benzamide] gave an IC50 of less than 2 µM. In turn, `CC(C)(C)c1cccc(C(=O)Nc2ccc(F)c(COc3cnccn3)c2)c1` [Compound 103, 3-tert-Butyl-N-[4-fluoro-3-(pyrazin-2-yloxymethyl)-phenyl]-benzamide] had an IC50 of less than 2 µM. The same measure, in the same setting: with `COc1cc(C(=O)Nc2ccc(F)c(COc3cnccn3)c2)nc(Cl)n1` [Compound 105, 2-Chloro-6-methoxy-pyrimidine-4-carboxylic acid [4-fluoro-3-(pyrazin-2-yloxymethyl)-phenyl]-amide] the figure was less than 1000 µM; with `CC(C)(C)c1cc(NC(=O)Nc2ccc(F)c(COc3cnccn3)c2)n(-c2ccccc2)n1` [Compound 106, 1-(5-tert-Butyl-2-phenyl-2H-pyrazol-3-yl)-3-[4-fluoro-3-(pyrazin-2-yloxymethyl)-phenyl]-urea], less than 2 µM; with `O=C(Nc1ccccc1)Oc1cccc(COc2cnccn2)c1` [Compound 107, Phenyl-carbamic acid 3-(pyrazin-2-yloxymethyl)-phenyl ester], less than 200 µM. On to `c1ccc(CNc2cccc(COc3cnccn3)c2)cc1` [Compound 108], for which the 50% inhibitory concentration (IC50) is less than 1000 µM.

`c1cc(COc2cnccn2)cc(Nc2nc3ccccc3o2)c1` [Compound 109] had an IC50 of less than 200 µM. The compound `Nc1cnc(OCc2c(Cl)cccc2Cl)cn1` [Compound 110] returned an IC50 of less than 200 µM. Consider `CCNC(=O)c1cnc(OCc2c(Cl)cccc2Cl)cn1` [Compound 111, 5-(2,6-Dichloro-benzyloxy)-pyrazine-2-carboxylic acid ethylamide], for which the IC50 was less than 1000 µM.

The compound `O=C(NCCO)c1cnc(OCc2c(Cl)cccc2Cl)cn1` [Compound 112, 5-(2,6-Dichloro-benzyloxy)-pyrazine-2-carboxylic acid (2-hydroxy-ethyl)-amide] yielded an IC50 of less than 1000 µM. Same read-out and setting: under `CC(C)(CO)NC(=O)c1cnc(OCc2c(Cl)cccc2Cl)cn1` [Compound 113, 5-(2,6-Dichloro-benzyloxy)-pyrazine-2-carboxylic acid (2-hydroxy-1,1-dimethyl-ethyl)-amide] stands less than 20 µM. On to `CCN(CC)C(=O)Nc1cnc(OCc2c(Cl)cccc2Cl)cn1` [Compound 114], for which the IC50 was less than 200 µM. Same read-out and setting: with `O=C(Nc1ccc(F)c(COc2cnccn2)c1)Nc1nnc(-c2ccccc2)s1` [Compound 115, 1-[4-Fluoro-3-(pyrazin-2-yloxymethyl)-phenyl]-3-(5-phenyl-[1,3,4]thiadiazol-2-yl)-urea] the figure was less than 200 µM; with `Cc1cc(C)c2nc(NC(=O)Nc3ccc(F)c(COc4cnccn4)c3)sc2c1` [Compound 116, 1-(4,6-Dimethyl-benzothiazol-2-yl)-3-[4-fluoro-3-(pyrazin-2-yloxymethyl)-phenyl]-urea], less than 1000 µM.

In the case of `O=C(Nc1ccc(F)c(COc2cnccn2)c1)Nc1cc(-c2ccccc2)[nH]n1` [Compound 118, 1-[4-Fluoro-3-(pyrazin-2-yloxymethyl)-phenyl]-3-(5-phenyl-1H-pyrazol-3-yl)-urea], the IC50 is less than 2 µM. Still for that read-out and setting: under `O=C(Nc1ccc(F)c(COc2cnccn2)c1)Nc1n[nH]cc1-c1ccccc1` [Compound 119, 1-[4-Fluoro-3-(pyrazin-2-yloxymethyl)-phenyl]-3-(4-phenyl-1H-pyrazol-3-yl)-urea] stands less than 20 µM; under `O=C(Nc1ccc(F)c(COc2cnccn2)c1)Nc1nnc(C2CCCO2)s1` (centres unmarked) [Compound 120, 1-[4-Fluoro-3-(pyrazin-2-yloxymethyl)-phenyl]-3-[5-(tetrahydro-furan-2-yl)-[1,3,4]thiadiazol-2-yl]-urea], less than 2 µM; under `O=C(Nc1ccc(F)c(COc2cnccn2)c1)Nc1nnc(Cc2ccccc2)s1` [Compound 121, 1-(5-Benzyl-[1,3,4]thiadiazol-2-yl)-3-[4-fluoro-3-(pyrazin-2-yloxymethyl)-phenyl]-urea], less than 2 µM.
